Assay results reported in publication PMC10996005, “Identification and Development of Cyclic Peptide Inhibitors of Hypoxia Inducible Factors 1 and 2 That Disrupt Hypoxia-Response Signaling in Cancer Cells” (Journal of the American Chemical Society, 2024).
Each block holds one molecule with its values, some of them ahead of it. Where a SMILES comes first, the peptide text is derived from it. [ ]: non-standard residue; d: D form. Phe(4-NO2) = N[C@@H](Cc1ccc([N+](=O)[O-])cc1)C(=O)O; Bpa = N[C@@H](Cc1ccc(C(=O)c2ccccc2)cc1)C(=O)O

How the values were obtained:
[1] = test system: HIF-driven expression of YFP in T-REx-293 reporter cell line; assay: HRE-YFP reporter assay in hypoxia; format: cell-based, human; settings: T-Rex-293 HRE-YFP reporter
Description: Following in vitro characterization and optimization of binding, we next assessed the effect of our cyclic peptides in mammalian cells. A cell line with a stably integrated reporter was constructed, in which the expression of yellow fluorescent protein (YFP) was placed under the control of a HRE. Thus, hypoxia would be expected to increase YFP expression (and subsequent fluorescence) in these cells, whereas treatment with a cell-permeable HIF inhibitor would be expected to reduce this fluorescence signal. A fusion cassette was designed containing the YFP gene preceded by three copies of the HRE sequence. This cassette was stably integrated into T-REx-293 cells as previously described.[12] […] The effect of this compound on the viability of T-Rex-293 was assessed with no effect observed at doses up to 75 μM (Figure S9a). […] It should be noted that the relative activity of each compound in this assay will be a combination of its cell permeability and HIF-inhibiting activity. […] We therefore continued to further characterize the cell activity of the 4-iodo-phenylalanine derivative. […]
Generation of HRE-eYFP integrated cell line
The Flp-In System (Fisher) was used to generate a constitutive expression cell line that expresses eYFP under the control of the VEGF HRE. The coding sequence of the yellow fluorescent protein (eYFP) was cloned downstream of the VEGF HRE sequence in the pcDNA5 plasmid, such that the entire cassette was under the regulation of a Tet-On gene expression system. The plasmid was transfected into a human embryonic kidney cell line (Flp-In™-293) and integrated using the manufacturer’s protocol.
Activity Assessment using Flp-In-HRE-eYFP cell line
The Flp-In-HRE-eYFP cells were plated on 24-well plates at 80% confluency and incubated overnight under normoxic conditions. The cells were then treated with different concentrations of compound and incubated for 18 hours under hypoxic conditions. After treatment, the cells were washed with PBS and lysed to extract the total cellular protein. The cell extract was cold centrifuged for 20 minutes at 14,000 RPM. An equal amount of the supernatant from each treatment was plated on a 96-well plate, and the emission of eYFP was measured using a microplate reader. […]

[2] = molecular target: T1, HIF-1α PAS-B domain (Homo sapiens, UniProt Q16665); assay: MST binding to the PAS-B domain of HIF-1α; settings: MST; for Kd: mean ± SEM, n = 2 (n = 1 for most C1 analogues, n = 3 in Figure S2), read-out: KD for HIF-1α PAS-B
T1 construct: made in house
Procedure: (§1) All reagents were purchased from Fisher Scientific or Sigma Aldrich UK unless specified otherwise.
(§2) Restriction enzymes and microbiology reagents were purchased from New England Biolabs Inc., Fisher Scientific (UK) or Promega (UK) and were used as directed by the manufacturer. Primers and oligonucleotides were synthesised by Integrated DNA Technologies (UK). DNA sequencing was carried out by Eurofins MWG Operon (Germany).
(§3) Construction of the RTHS and SICLOPPS library, screening, purification of recombinant HIF proteins, and the PLA was conducted as previously described in Miranda et al., J. Am. Chem. Soc., 2013, 135(28); […]
(§4) Protein labelling with MST dye
(§5) Protein was buffer exchanged from storage buffer into labelling buffer (0.1 M NaHCO3, pH 8.5) using a PD spintrap G-25 column (GE healthcare). The protein concentration was then adjusted to 20 µM.
(§6) The commercially sourced MST dye (NanoTemper) was prepared as a 470 µM solution in DMSO, which was then further diluted to 60 µM using labelling buffer. To the protein solution was added an equal volume of dye solution, and the labelling reaction was left for 1 hour in the dark at room temperature.
(§7) The labelled protein was separated from unreacted dye by elution through a PD minitrap G-25 column (GE healthcare). Labelled protein was then aliquoted and stored at -80 °C. Extent of labelling was measured by the absorbance obtained using the UV-vis mode on a NanoDrop ND-1000 Spectrophotometer (NanoDrop Technologies, USA).
(§8) Labelled protein was thawed on ice and diluted to 50 nM in assay buffer containing 50 mM Tris pH 8.0, 150 mM NaCl, 5% (v/v) glycerol, 1 mM TCEP and 0.05% TWEEN-20. The protein solution was then centrifuged at 12000 rpm for 15 minutes at 4 °C and left on ice. Compounds were prepared and serially diluted in DMSO at 10x assay concentration, before diluting to 2x assay concentration in assay buffer.
(§9) The 2x compound solutions were then mixed 1:1 (v/v) with 50 nM labelled protein solution and left to incubate for 1 hour at room temperature. Solutions were then loaded into Monolith NT.115 Premium Capillaries (NanoTemper) and placed in the sample tray. MST experiments were carried out

[3] = test system: CAIX and VEGF genes in MCF-7 cells; assay: qPCR of hypoxia-response genes in MCF-7 cells; format: cell-based; settings: hypoxic MCF-7 cells, 2 μM
Procedure: (§10) The effect of our lead inhibitor on hypoxia-response signaling was measured by qPCR in cancer cell lines. Cells were treated with either 2 μM of an analogue of the HIF-2-specific inhibitor belzutifan, PT2399 (control), or 50 μM of cyclo-CRLII(4-iodo)F, incubated in hypoxia for […], and the levels of the hypoxia-response genes CAIX([41],[42]) and VEGF([43]) were measured by qPCR. We observed a 51% drop in CAIX transcription and a 43% drop in VEGF transcription in hypoxic MCF-7 (breast cancer) cells treated with 50 μM of cyclo-CRLII(4-iodo)F versus hypoxic MCF-7 cells treated with DMSO only (Figure 6e). […] We also observed a 49% drop in CAIX expression in hypoxic HeLa (cervical cancer) cells treated with cyclo-CRLII(4-iodo)F (Figure S9b). […] We observed a 35% drop in HIF-2-driven VEGF transcription in 786-O cells treated with 50 μM of cyclo-CRLII(4-iodo)F compared to a 50% decrease in 786-O cells treated with PT2399. […]
(§11) Realtime PCR (qPCR) Assay
(§12) Cells were plated on 6cm dishes at 80% confluency and incubated overnight under normoxic conditions. The cells were then treated with compound and incubated for 18 hours in hypoxic conditions. After treatment, the cells were washed with PBS and lysed under hypoxic conditions. The total RNA was extracted from the cells using a commercial RNA extraction kit (Fisher Scientific) following the manufacturer's instructions. A commercial reverse transcription kit (Promega) was used to generate cDNA. The MyTaq™ Mix master mix and appropriate primers targeting CAIX and VEGF were used to perform the qPCR reaction using a qPCR machine (Bio-Rad).

[4] = test system: VEGF gene in 786-O cells; assay: qPCR of HIF-2-driven VEGF in 786-O cells; format: cell-based; settings: 2 μM
Procedure: as §10, §11
as §12, with “A commercial reverse transcription kit (Promega) was used to generate cDNA. The MyTaq™ Mix master mix and appropriate primers targeting CAIX and VEGF were used to perform the qPCR reaction using a qPCR machine (Bio-Rad).” left out

[5] = test system: CAIX and VEGF genes in Panc-1 cells; assay: qPCR of hypoxia-response genes in Panc-1 cells; format: cell-based; settings: hypoxic Panc-1 cells, 2 μM
Procedure: as §10, §11, §12

[6] = test system: RCC associated with VHL disease; parameters: method as in PMID 34453144; settings: phase 2 clinical trial, all partial responses; cited from earlier work
[7] = molecular target: T2, HIF-2α PAS-B domain (Homo sapiens, UniProt Q99814); assay: MST binding to the PAS-B domain of HIF-2α; settings: MST; for Kd: mean (n = 2) ± SEM
T2 construct: made in house
Procedure: as §1, §2, §3, §4, §5, §6, §7, §8, §9

T2 sequence (Q99814 240-350 limits assumed): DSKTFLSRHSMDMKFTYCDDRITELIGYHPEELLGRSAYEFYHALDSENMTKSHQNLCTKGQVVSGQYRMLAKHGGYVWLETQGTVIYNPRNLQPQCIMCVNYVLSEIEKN
T1 sequence (Q16665 238-349 limits assumed): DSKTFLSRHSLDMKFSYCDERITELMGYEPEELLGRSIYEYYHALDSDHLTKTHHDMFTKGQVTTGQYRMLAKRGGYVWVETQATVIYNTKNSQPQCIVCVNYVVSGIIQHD

SMILES: CC[C@H](C)[C@@H]1NC(=O)[C@H](CC(C)C)NC(=O)[C@H](CCCNC(=N)N)NC(=O)[C@H](CS)NC(=O)[C@H](Cc2ccc([N+](=O)[O-])cc2)NC(=O)[C@H]([C@@H](C)CC)NC1=O [NO2, cyclo-CRLII(4-NO2)F] (cyclo(CRLII[Phe(4-NO2)]))
relative activity among the 9 most potent cyclo-CRLIIF derivatives on YFP expression [1]: least active | Kd [2]: 3.3 ± 0.1 µM

SMILES: N#Cc1cc(F)cc(Oc2ccc(S(=O)(=O)C(F)F)c3c2CC(F)(F)[C@H]3O)c1 [PT2399, reference compound]
inhibition of hypoxia-driven expression of CAIX [3]: did not inhibit | inhibition of hypoxia-driven expression of VEGF [3]: did not inhibit | decrease in HIF-2-driven VEGF transcription [4]: 50% | drop in CAIX transcription [5]: 23% | drop in VEGF transcription [5]: 53%

SMILES: CS(=O)(=O)c1ccc(Oc2cc(F)cc(C#N)c2)c2c1[C@H](O)[C@H](F)[C@@H]2F [belzutifan]
patients responded [6]: 49%

SMILES: CC[C@H](C)[C@@H]1NC(=O)[C@H](CC(C)C)NC(=O)[C@H](CCCCN)NC(=O)[C@H](CS)NC(=O)[C@H](Cc2ccccc2)NC(=O)[C@H]([C@@H](C)CC)NC1=O [cyclo-CKLIIF] (cyclo(CKLIIF))
Hill slope of binding curve to HIF-2α [7]: 1.38 | Hill slope of binding curve to HIF-1α [2]: 1.33

SMILES: CC[C@H](C)[C@@H]1NC(=O)[C@H](CC(C)C)NC(=O)[C@H](CCCNC(=N)N)NC(=O)[C@H](CS)NC(=O)[C@H](Cc2ccc(C(=O)c3ccccc3)cc2)NC(=O)[C@H]([C@@H](C)CC)NC1=O [(4-Bz)F, cyclo-CRLII(4-Bz)F] (cyclo([Bpa]CRLII))
relative activity among the 9 most potent cyclo-CRLIIF derivatives on YFP expression [1]: most active

SMILES: CC[C@H](C)[C@@H]1NC(=O)[C@H](CC(C)C)NC(=O)[C@H](CCCNC(=N)N)NC(=O)[C@H](C)NC(=O)[C@H](Cc2ccccc2)NC(=O)[C@H]([C@@H](C)CC)NC1=O [cyclo-ARLIIF] (cyclo(ARLIIF))
Kd [7]: > 100 µM | Kd [2]: > 100 µM

The remaining lines, values ahead:

Kd [7]: > 100 µM | Kd [2]: > 100 µM
SMILES: CC[C@H](C)[C@@H]1NC(=O)[C@H](CC(C)C)NC(=O)[C@H](CCCNC(=N)N)NC(=O)[C@H](CS)NC(=O)[C@H](Cc2ccccc2)NC(=O)[C@H](C)NC1=O [cyclo-CRLIAF]

Kd [7]: 61 ± 9.1 µM | Kd [2]: 12.8 ± 3.6 µM
SMILES: CC[C@H](C)[C@@H]1NC(=O)[C@H](C)NC(=O)[C@H](CC(C)C)NC(=O)[C@H](CCCNC(=N)N)NC(=O)[C@H](CS)NC(=O)[C@H](Cc2ccccc2)NC1=O [cyclo-CRLAIF] (cyclo(CRLAIF))
